# According to patent publication US20190185518A9, “WARHEAD-CONTAINING PEPTIDOMIMETIC MACROCYCLES AS MODULATORS OF BFL-1” (AILERON Therapeutics, Inc., priority 2017, published 2019):
# Positions of bridges follow the written chain, without caps; N, C: chain ends. Non-standard residues stand in square brackets, D forms with d. Residues, ends and D or L forms follow the SMILES beside them. Gly(1-adamantyl) = N[C@H](C(=O)O)C12CC3CC(CC(C3)C1)C2; R8 = C=CCCCCCC[C@@](C)(N)C(=O)O; Cit = NC(=O)NCCC[C@H](N)C(=O)O; αMeL = CC(C)C[C@](C)(N)C(=O)O; S5 = C=CCCC[C@](C)(N)C(=O)O
# How the values were obtained:
# Bcl-xL = Bcl-xL (Homo sapiens, UniProt Q07817); assay: Ki determination for Bcl-xL (BCL-2 family binding spectrum); settings: read-out: Ki BCL-XL
# Chain of Bcl-xL (Q07817 whole entry, species assumed): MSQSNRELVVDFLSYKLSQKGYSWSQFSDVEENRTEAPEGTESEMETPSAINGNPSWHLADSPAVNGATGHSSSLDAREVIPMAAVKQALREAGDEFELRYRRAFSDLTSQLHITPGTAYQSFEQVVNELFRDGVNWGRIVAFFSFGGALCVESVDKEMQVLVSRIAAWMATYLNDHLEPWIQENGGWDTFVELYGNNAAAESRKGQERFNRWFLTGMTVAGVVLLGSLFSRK
# Description: (§1) To assess the binding and affinity of compounds that antagonize the interaction between a peptide and an acceptor protein, a fluorescence polarization assay (FPA) utilizing a fluoresceinated peptidomimetic macrocycle derived from a peptidomimetic precursor sequence is used, for example. The FPA technique measures the molecular orientation and mobility using polarized light and fluorescent tracer. […] A compound that antagonizes the interaction between the fluoresceinated peptidomimetic macrocycle and an acceptor protein will be detected in a competitive binding FPA experiment.
# (§2) For example, putative antagonist compounds (1 nM to 1 mM) and a fluoresceinated peptidomimetic macrocycle (25 nM) are incubated with the acceptor protein (50 nM) in binding buffer (140 mM NaCl, 50 mM Tris-HCL, pH 7.4) for 30 minutes at room temperature. Antagonist binding activity is measured, for example, by fluorescence polarization on a luminescence spectrophotometer (e.g. Perkin-Elmer LS50B). Kd values may be determined by nonlinear regression analysis using, for example, Graphpad Prism software (GraphPad Software, Inc., San Diego, Calif.).
# Bcl-2 = Bcl-2 (Homo sapiens, UniProt P10415); assay: Ki determination for Bcl-2 (BCL-2 family binding spectrum); settings: read-out: Ki BCL-2
# Chain of Bcl-2 (P10415 whole entry, species assumed): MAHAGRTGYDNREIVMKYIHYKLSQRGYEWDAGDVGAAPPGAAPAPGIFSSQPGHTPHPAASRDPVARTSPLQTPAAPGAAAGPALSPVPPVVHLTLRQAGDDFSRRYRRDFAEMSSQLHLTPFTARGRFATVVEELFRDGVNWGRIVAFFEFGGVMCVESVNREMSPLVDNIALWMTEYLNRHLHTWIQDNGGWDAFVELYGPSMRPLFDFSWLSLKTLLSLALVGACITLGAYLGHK
# Description: as §1, §2
# Mcl-1 = Mcl-1 (Homo sapiens, UniProt Q07820); assay: Ki determination for Mcl-1 (BCL-2 family binding spectrum); settings: read-out: Ki MCL-1
# Chain of Mcl-1 (Q07820 whole entry, species assumed): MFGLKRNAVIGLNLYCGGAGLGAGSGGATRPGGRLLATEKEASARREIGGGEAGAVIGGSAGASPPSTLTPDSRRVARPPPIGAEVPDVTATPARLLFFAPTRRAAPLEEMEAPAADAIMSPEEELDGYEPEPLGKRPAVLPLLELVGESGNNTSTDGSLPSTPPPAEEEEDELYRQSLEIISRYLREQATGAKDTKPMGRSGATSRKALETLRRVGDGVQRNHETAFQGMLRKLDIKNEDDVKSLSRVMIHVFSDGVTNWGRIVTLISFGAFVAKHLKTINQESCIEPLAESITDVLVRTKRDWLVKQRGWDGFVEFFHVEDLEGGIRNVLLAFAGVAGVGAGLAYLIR
# Method in brief: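 Binding to Mcl-1 was measured as displacement of a fluorescein-labelled macrocyclic peptidomimetic, read by fluorescence polarization. Constants were fitted by nonlinear regression.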
Ki (Bcl-xL),Ki (Bcl-2),Ki (Mcl-1),SMILES
> 1000 nM,> 1000 nM,,CC[C@H](C)[C@H](NC(C)=O)C(=O)N[C@@H](C)C(=O)N[C@@H](CCC(N)=O)C(=O)N[C@@H](C)C(=O)N[C@@H](CC(C)C)C(=O)N[C@@H](CCCNC(=N)N)C(=O)N[C@]1(C)CCCCCCC=CCCC[C@@](C)(C(=O)N[C@@H](Cc2ccc(O)cc2)C(=O)N[C@@H](C)C(=O)N[C@@H](C)C(N)=O)NC(=O)[C@H](CC(N)=O)NC(=O)[C@H](Cc2ccccc2)NC(=O)[C@H](C)NC(=O)[C@H](CC(=O)O)NC(=O)CNC(=O)[C@H]([C@@H](C)CC)NC1=O [compound 1632] (Ac-IAQALR[R8]IGDAFN[S5]YAA-NH2; staple 7-14)
> 1000 nM,> 1000 nM,,CC[C@H](C)[C@H](NC(C)=O)C(=O)N[C@@H](C)C(=O)N[C@@H](CCC(N)=O)C(=O)N[C@@H](C)C(=O)N[C@@H](CC(C)C)C(=O)N[C@@H](CCCNC(=N)N)C(=O)N[C@]1(C)CCCCCCC=CCCC[C@@](C)(C(=O)N[C@@H](Cc2ccc(O)cc2)C(=O)N[C@@H](Cc2ccc(O)cc2)C(=O)N[C@@H](C)C(N)=O)NC(=O)[C@H](CC(N)=O)NC(=O)[C@H](C)NC(=O)[C@H](C)NC(=O)[C@H](CC(=O)O)NC(=O)CNC(=O)[C@H]([C@@H](C)CC)NC1=O [compound 1639] (Ac-IAQALR[R8]IGDAAN[S5]YYA-NH2; staple 7-14)
> 1000 nM,> 1000 nM,,CC[C@H](C)[C@H](NC(C)=O)C(=O)N[C@@H](Cc1c[nH]c2ccccc12)C(=O)N[C@H](C(=O)N[C@@H](C)C(=O)N[C@@H](CCC(N)=O)C(=O)N[C@@H](C)C(=O)N[C@@](C)(CC(C)C)C(=O)N[C@@H](CCCNC(=N)N)C(=O)N[C@]1(C)CCCCCCC=CCCC[C@@](C)(C(=O)N[C@@H](Cc2ccc(O)cc2)C(=O)N[C@@H](Cc2ccc(O)cc2)C(=O)N[C@@H](C)C(N)=O)NC(=O)[C@H](CC(N)=O)NC(=O)[C@H](Cc2ccccc2)NC(=O)[C@H](C)NC(=O)[C@H](CC(=O)O)NC(=O)CNC(=O)[C@H]([C@@H](C)CC)NC1=O)[C@@H](C)CC [compound 1767] (Ac-IWIAQA[αMeL]R[R8]IGDAFN[S5]YYA-NH2; staple 9-16)
,> 1000 nM,> 1000 nM,CC[C@H](C)[C@H](NC(C)=O)C(=O)N[C@@H](Cc1c[nH]c2ccccc12)C(=O)N[C@H](C(=O)N[C@@H](C)C(=O)N[C@@H](CCC(N)=O)C(=O)N[C@@H](C)C(=O)N[C@@H](C)C(=O)N[C@@H](CCCNC(N)=O)C(=O)N[C@]1(C)CCCCCCC=CCCC[C@@](C)(C(=O)N[C@@H](Cc2ccc(O)cc2)C(=O)N[C@@H](Cc2ccc(O)cc2)C(=O)N[C@@H](C)C(N)=O)NC(=O)[C@H](CC(N)=O)NC(=O)[C@H](Cc2ccccc2)NC(=O)[C@H](C)NC(=O)[C@H](CC(=O)O)NC(=O)CNC(=O)[C@H]([C@@H](C)CC)NC1=O)[C@@H](C)CC [compound 1771] (Ac-IWIAQAA[Cit][R8]IGDAFN[S5]YYA-NH2; staple 9-16)
> 1000 nM,> 1000 nM,,CC[C@H](C)[C@H](NC(C)=O)C(=O)N[C@@H](Cc1c[nH]c2ccccc12)C(=O)N[C@H](C(=O)N[C@@H](C)C(=O)N[C@@H](CCC(N)=O)C(=O)N[C@@H](C)C(=O)N[C@@H](CC(C)C)C(=O)N[C@@H](CCCNC(N)=O)C(=O)N[C@]1(C)CCCCCCC=CCCC[C@@](C)(C(=O)N[C@@H](Cc2ccc(O)cc2)C(=O)N[C@@H](Cc2ccc(O)cc2)C(=O)N[C@@H](C)C(N)=O)NC(=O)[C@H](CC(N)=O)NC(=O)[C@H](C)NC(=O)[C@H](C)NC(=O)[C@H](CC(=O)O)NC(=O)CNC(=O)[C@H]([C@@H](C)CC)NC1=O)[C@@H](C)CC [compound 1773] (Ac-IWIAQAL[Cit][R8]IGDAAN[S5]YYA-NH2; staple 9-16)

# Continued, compound first:
SMILES,Ki (Bcl-xL),Ki (Bcl-2),Ki (Mcl-1)
CC[C@H](C)[C@H](NC(C)=O)C(=O)N[C@@H](C)C(=O)N[C@@H](CCC(N)=O)C(=O)N[C@@H](C)C(=O)N[C@@H](CC(C)C)C(=O)N[C@@H](C)C(=O)N[C@]1(C)CCCCCCC=CCCC[C@@](C)(C(=O)N[C@@H](Cc2ccc(O)cc2)C(=O)N[C@@H](Cc2ccc(O)cc2)C(=O)N[C@@H](C)C(N)=O)NC(=O)[C@H](CC(N)=O)NC(=O)[C@H](Cc2ccccc2)NC(=O)[C@H](C)NC(=O)[C@H](CC(=O)O)NC(=O)CNC(=O)[C@H]([C@@H](C)CC)NC1=O [compound 1637] (Ac-IAQALA[R8]IGDAFN[S5]YYA-NH2; staple 7-14),> 1000 nM,> 1000 nM,
CC[C@H](C)[C@H](NC(C)=O)C(=O)N[C@@H](Cc1c[nH]c2ccccc12)C(=O)N[C@H](C(=O)N[C@@H](C)C(=O)N[C@@H](CCC(N)=O)C(=O)N[C@@H](C)C(=O)N[C@@H](CC(C)C)C(=O)N[C@@H](CCCNC(=N)N)C(=O)N[C@]1(C)CCCCCCC=CCCC[C@@](C)(C(=O)N[C@@H](Cc2ccc(O)cc2)C(=O)N[C@@H](Cc2ccc(O)cc2)C(=O)N[C@@H](C)C(N)=O)NC(=O)[C@H](CC(N)=O)NC(=O)[C@H](Cc2ccccc2)NC(=O)[C@H](CCC(N)=O)NC(=O)[C@H](CC(=O)O)NC(=O)CNC(=O)[C@H]([C@@H](C)CC)NC1=O)[C@@H](C)CC [compound 1650] (Ac-IWIAQALR[R8]IGDQFN[S5]YYA-NH2; staple 9-16),12 nM,67 nM,5.2 nM
CC[C@H](C)[C@H](NC(C)=O)C(=O)N[C@@H](Cc1c[nH]c2ccccc12)C(=O)N[C@H](C(=O)N[C@@H](C)C(=O)N[C@@H](CCC(N)=O)C(=O)N[C@@H](C)C(=O)N[C@H](C(=O)N[C@@H](CCCNC(=N)N)C(=O)N[C@]1(C)CCCCCC/C=C\CCC[C@@](C)(C(=O)N[C@@H](Cc2ccc(O)cc2)C(=O)N[C@@H](Cc2ccc(O)cc2)C(=O)N[C@@H](C)C(N)=O)NC(=O)[C@H](CC(N)=O)NC(=O)[C@H](Cc2ccccc2)NC(=O)[C@H](C)NC(=O)[C@H](CC(=O)O)NC(=O)CNC(=O)[C@H]([C@@H](C)CC)NC1=O)C12CC3CC(CC(C3)C1)C2)[C@@H](C)CC [compound 1689] (Ac-IWIAQA[Gly(1-adamantyl)]R[R8]IGDAFN[S5]YYA-NH2; staple (Z) 9-16),110 nM,> 1000 nM,
CC[C@H](C)[C@H](NC(C)=O)C(=O)N[C@@H](Cc1c[nH]c2ccccc12)C(=O)N[C@H](C(=O)N[C@@H](Cc1ccccc1)C(=O)N[C@@H](C)C(=O)N[C@@H](C)C(=O)N[C@@H](CC(C)C)C(=O)N[C@@H](CCCNC(=N)N)C(=O)N[C@]1(C)CCCCCCC=CCCC[C@@](C)(C(=O)N[C@@H](Cc2ccc(O)cc2)C(=O)N[C@@H](Cc2ccc(O)cc2)C(=O)N[C@@H](C)C(N)=O)NC(=O)[C@H](CC(N)=O)NC(=O)[C@H](Cc2ccccc2)NC(=O)[C@H](C)NC(=O)[C@H](CC(=O)O)NC(=O)CNC(=O)[C@H]([C@@H](C)CC)NC1=O)[C@@H](C)CC [compound 1735] (Ac-IWIFAALR[R8]IGDAFN[S5]YYA-NH2; staple 9-16),110 nM,125 nM,
CC[C@H](C)[C@H](NC(C)=O)C(=O)N[C@@H](Cc1c[nH]c2ccccc12)C(=O)N[C@H](C(=O)N[C@@H](C)C(=O)N[C@@H](CCC(N)=O)C(=O)N[C@@H](C)C(=O)N[C@@H](CC(C)C)C(=O)N[C@@H](CCCNC(N)=O)C(=O)N[C@]1(C)CCCCCCC=CCCC[C@@](C)(C(=O)N[C@@H](Cc2ccc(O)cc2)C(=O)N[C@@H](Cc2ccc(O)cc2)C(=O)N[C@@H](C)C(N)=O)NC(=O)[C@H](CC(N)=O)NC(=O)[C@H](C(C)C)NC(=O)[C@H](C)NC(=O)[C@H](CC(=O)O)NC(=O)CNC(=O)[C@H]([C@@H](C)CC)NC1=O)[C@@H](C)CC [compound 1774] (Ac-IWIAQAL[Cit][R8]IGDAVN[S5]YYA-NH2; staple 9-16),> 1000 nM,> 1000 nM,
